According to patent US12077503B2, “Substituted cyclic amides and their use as herbicides” (FMC CORPORATION, priority 2015, dated 2024):
Where two headings read alike, the source gives them in different places.

What was measured:
Type in all cases: in vivo
Kochia (Kochia scoparia) = assay: Test A preemergence; details: Bassia scoparia, pre-emergence, 240 h; for pest or weed control at 125 g/ha: 125 g ai/ha, preemergence, 0 to 100 scale where 0 is no effect and 100 is complete control
In short: (§1)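 Each rating is a visual injury score from 0 to 100 given about 10 d after treatment, judged against untreated controls kept alongside in the greenhouse. In loam soil–sand blend, seeds got a preemergence directed soil spray, while postemergence plants were 2 to 10 cm tall at spraying.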

[1] = system: barnyardgrass (Echinochloa crus-galli); assay: Test A preemergence; details: Echinochloa crus-galli, pre-emergence, 240 h; for pest or weed control at 125 g/ha: 125 g ai/ha; for pest or weed control at 500 g/ha: 500 g ai/ha
In short: as §1

[2] = system: giant foxtail (Setaria faberii); assay: Test A preemergence; details: Setaria faberi, pre-emergence, 240 h; for pest or weed control at 125 g/ha: 125 g ai/ha; for pest or weed control at 500 g/ha: 500 g ai/ha
In short: as §1

[3] = system: pigweed (Amaranthus retroflexus); assay: Test A preemergence; details: Amaranthus retroflexus, pre-emergence, 240 h; for pest or weed control at 125 g/ha: 125 g ai/ha; for pest or weed control at 500 g/ha: 500 g ai/ha
[4] = system: ragweed (common ragweed, Ambrosia elatior); assay: Test A preemergence; details: Ambrosia artemisiifolia, pre-emergence, 240 h; for pest or weed control at 125 g/ha: 125 g ai/ha; for pest or weed control at 500 g/ha: 500 g ai/ha
In short: as §1

[5] = system: ryegrass, Italian (Italian ryegrass, Lolium multiflorum); assay: Test A preemergence; details: Lolium multiflorum, pre-emergence, 240 h; for pest or weed control at 125 g/ha: 125 g ai/ha; for pest or weed control at 500 g/ha: 500 g ai/ha
In short: as §1

[6] = system: blackgrass (Alopecurus myosuroides); assay: Test A postemergence; details: Alopecurus myosuroides, post-emergence, 240 h, postemergence; for pest or weed control at 125 g/ha: 125 g ai/ha
In short: as §1

[7] = system: giant foxtail (Setaria faberii); assay: Test A postemergence; details: Setaria faberi, post-emergence, 240 h, postemergence; for pest or weed control at 125 g/ha: 125 g ai/ha
In short: as §1

[8] = system: pigweed (Amaranthus retroflexus); assay: Test A postemergence; details: Amaranthus retroflexus, post-emergence, 240 h, postemergence; for pest or weed control at 125 g/ha: 125 g ai/ha
In short: as §1

[9] = system: ryegrass, Italian (Italian ryegrass, Lolium multiflorum); assay: Test A postemergence; details: Lolium multiflorum, post-emergence, 240 h, postemergence; for pest or weed control at 125 g/ha: 125 g ai/ha
In short: as §1

[10] = system: wheat (Triticum aestivum); assay: Test A postemergence; details: Triticum aestivum, post-emergence, 240 h, postemergence; for plant injury at 125 g/ha: 125 g ai/ha
In short: as §1

[11] = system: barnyardgrass (Echinochloa crus-galli); assay: Test B flooded paddy test; details: Echinochloa crus-galli, 250 g ai/ha, Flood, read-out: Barnyardgrass plant response rating
In short: (§2)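 Response scored visually against untreated controls, 0 = no effect and 100 = complete control, 13–15 d after treatment in the greenhouse. Compounds added to paddy water held 3 cm above soil surface. Treatment given at 2-leaf stage.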

[12] = system: ducksalad (Heteranthera limosa); assay: Test B flooded paddy test; details: Heteranthera limosa, 250 g ai/ha, Flood, read-out: Ducksalad plant response rating
In short: as §2

rice (Oryra sativa) = assay: Test B flooded paddy test; details: Oryza sativa, 250 g ai/ha, Flood, read-out: Rice plant response rating
In short: as §2

[13] = system: sedge, umbrella (small-flower umbrella sedge, Cyperus difformis); assay: Test B flooded paddy test; details: Cyperus difformis, 250 g ai/ha, Flood, read-out: Sedge, Umbrella plant response rating
In short: as §2

[14] = 0 to 100 scale where 0 is no effect and 100 is complete control
[15] = scale of 0 to 100 where 0 is no effect and 100 is complete control

## COc1ccc([C@H]2CN(C)C(=O)[C@@H]2C(=O)Nc2ccccc2SC)c(OC)c1 [Compound 1216]
Kochia (Kochia scoparia); visual injury rating, approximately 10 d, read-out: Kochia plant response rating
  pest or weed control at 125 g/ha: 0%
[1]; preemergence, visual injury rating, 0 to 100 scale where 0 is no effect and 100 is complete control, approximately 10 d, read-out: Barnyardgrass plant response rating
  pest or weed control at 125 g/ha: 0%
[1]; preemergence, 0 to 100 scale where 0 is no effect and 100 is complete control, read-out: Barnyardgrass plant response rating
  pest or weed control at 500 g/ha: 90%
[2]; preemergence, visual injury rating, 0 to 100 scale where 0 is no effect and 100 is complete control, approximately 10 d, read-out: Foxtail, Giant plant response rating
  pest or weed control at 125 g/ha: 30%
[2]; preemergence, 0 to 100 scale where 0 is no effect and 100 is complete control, read-out: Foxtail, Giant plant response rating
  pest or weed control at 500 g/ha: 80%
[3]; preemergence, visual injury rating, 0 to 100 scale where 0 is no effect and 100 is complete control, approximately 10 d, read-out: Pigweed plant response rating
  pest or weed control at 125 g/ha: 0%
[3]; preemergence, 0 to 100 scale where 0 is no effect and 100 is complete control, read-out: Pigweed plant response rating
  pest or weed control at 500 g/ha: 0%
[4]; preemergence, visual injury rating, 0 to 100 scale where 0 is no effect and 100 is complete control, approximately 10 d, read-out: Ragweed plant response rating
  pest or weed control at 125 g/ha: 0%
[4]; preemergence, 0 to 100 scale where 0 is no effect and 100 is complete control, read-out: Ragweed plant response rating
  pest or weed control at 500 g/ha: 20%
[5]; preemergence, visual injury rating, 0 to 100 scale where 0 is no effect and 100 is complete control, approximately 10 d, read-out: Ryegrass, Italian plant response rating
  pest or weed control at 125 g/ha: 0%
[5]; preemergence, 0 to 100 scale where 0 is no effect and 100 is complete control, read-out: Ryegrass, Italian plant response rating
  pest or weed control at 500 g/ha: 0%
[6]; visual injury vs untreated controls after approx. 10 d, 0 = no effect, 100 = complete control, read-out: Blackgrass plant response rating (0 to 100 scale)
  pest or weed control at 125 g/ha: 0%
[6]; 500 g ai/ha, 0 to 100 scale, 0 is no effect, 100 is complete control, read-out: Blackgrass plant response rating
  pest or weed control at 500 g/ha: 0%
[7]; visual injury vs untreated controls after approx. 10 d, 0 = no effect, 100 = complete control, read-out: Foxtail, Giant plant response rating (0 to 100 scale)
  pest or weed control at 125 g/ha: 20%
[7]; 500 g ai/ha, 0 to 100 scale, 0 is no effect, 100 is complete control, read-out: Foxtail, Giant plant response rating
  pest or weed control at 500 g/ha: 80%
[8]; visual injury vs untreated controls after approx. 10 d, 0 = no effect, 100 = complete control, read-out: Pigweed plant response rating (0 to 100 scale)
  pest or weed control at 125 g/ha: 0%
[8]; 500 g ai/ha, 0 to 100 scale, 0 is no effect, 100 is complete control, read-out: Pigweed plant response rating
  pest or weed control at 500 g/ha: 0%
[9]; visual injury vs untreated controls after approx. 10 d, 0 = no effect, 100 = complete control, read-out: Ryegrass, Italian plant response rating (0 to 100 scale)
  pest or weed control at 125 g/ha: 0%
[9]; 500 g ai/ha, 0 to 100 scale, 0 is no effect, 100 is complete control, read-out: Ryegrass, Italian plant response rating
  pest or weed control at 500 g/ha: 0%
[10]; visual injury vs untreated controls after approx. 10 d, 0 = no effect, 100 = complete control, read-out: Wheat plant response rating (0 to 100 scale)
  plant injury at 125 g/ha: 0%
[10]; 500 g ai/ha, 0 to 100 scale, 0 is no effect, 100 is complete control, read-out: Wheat plant response rating
  plant injury at 500 g/ha: 0%
[11]; [14]
  pest or weed control at 250 g/ha: 0%
[12]; [14]
  pest or weed control at 250 g/ha: 0%
Rice (Oryra sativa); [14]
  pest or weed control at 250 g/ha: 0%
[13]; [14]
  pest or weed control at 250 g/ha: 0%

## O=C1NC[C@H](c2ccc3c(c2)CCO3)[C@H]1C(=O)Nc1cccc(F)c1F [Compound 785]
Kochia (Kochia scoparia); visual rating after approx. 10 d, read-out: Plant response rating, Kochia
  pest or weed control at 125 g/ha: 20%
Kochia (Kochia scoparia); 500 g ai/ha, Preemergence, visual injury vs untreated controls after approximately 10 d, read-out: Kochia plant response rating (0 to 100 scale where 0 is no effect and 100 is complete control)
  pest or weed control at 500 g/ha: 40%
[1]; preemergence, visual rating after approx. 10 d, 0 to 100 scale where 0 is no effect and 100 is complete control, read-out: Plant response rating, Barnyardgrass
  pest or weed control at 125 g/ha: 90%
[1]; Preemergence, visual injury vs untreated controls after approximately 10 d, read-out: Barnyardgrass plant response rating (0 to 100 scale where 0 is no effect and 100 is complete control)
  pest or weed control at 500 g/ha: 90%
[2]; preemergence, visual rating after approx. 10 d, 0 to 100 scale where 0 is no effect and 100 is complete control, read-out: Plant response rating, Foxtail, Giant
  pest or weed control at 125 g/ha: 90%
[2]; Preemergence, visual injury vs untreated controls after approximately 10 d, read-out: Foxtail, Giant plant response rating (0 to 100 scale where 0 is no effect and 100 is complete control)
  pest or weed control at 500 g/ha: 90%
[3]; preemergence, visual rating after approx. 10 d, 0 to 100 scale where 0 is no effect and 100 is complete control, read-out: Plant response rating, Pigweed
  pest or weed control at 125 g/ha: 0%
[3]; Preemergence, visual injury vs untreated controls after approximately 10 d, read-out: Pigweed plant response rating (0 to 100 scale where 0 is no effect and 100 is complete control)
  pest or weed control at 500 g/ha: 20%
[4]; preemergence, visual rating after approx. 10 d, 0 to 100 scale where 0 is no effect and 100 is complete control, read-out: Plant response rating, Ragweed
  pest or weed control at 125 g/ha: 0%
[4]; Preemergence, visual injury vs untreated controls after approximately 10 d, read-out: Ragweed plant response rating (0 to 100 scale where 0 is no effect and 100 is complete control)
  pest or weed control at 500 g/ha: 0%
[5]; preemergence, visual rating after approx. 10 d, 0 to 100 scale where 0 is no effect and 100 is complete control, read-out: Plant response rating, Ryegrass, Italian
  pest or weed control at 125 g/ha: 0%
[5]; Preemergence, visual injury vs untreated controls after approximately 10 d, read-out: Ryegrass, Italian plant response rating (0 to 100 scale where 0 is no effect and 100 is complete control)
  pest or weed control at 500 g/ha: 40%
[6]; visual injury after approximately 10 d, 0 to 100 scale (0 no effect, 100 complete control), read-out: Plant response rating, Blackgrass
  pest or weed control at 125 g/ha: 20%
[7]; visual injury after approximately 10 d, 0 to 100 scale (0 no effect, 100 complete control), read-out: Plant response rating, Foxtail, Giant
  pest or weed control at 125 g/ha: 70%
[8]; visual injury after approximately 10 d, 0 to 100 scale (0 no effect, 100 complete control), read-out: Plant response rating, Pigweed
  pest or weed control at 125 g/ha: 0%
[9]; visual injury after approximately 10 d, 0 to 100 scale (0 no effect, 100 complete control), read-out: Plant response rating, Ryegrass, Italian
  pest or weed control at 125 g/ha: 30%
[10]; visual injury after approximately 10 d, 0 to 100 scale (0 no effect, 100 complete control), read-out: Plant response rating, Wheat
  plant injury at 125 g/ha: 0%
[11]; [15]
  pest or weed control at 250 g/ha: 40%
[12]; [15]
  pest or weed control at 250 g/ha: 90%
Rice (Oryra sativa); [15]
  pest or weed control at 250 g/ha: 0%
[13]; [15]
  pest or weed control at 250 g/ha: 0%
